According to PubChem BioAssay AID1963838 (Molecular Pharmacology Branch, DTP, NCI, 2024):

Test system: 855422-203-R-J1-PDC complex spheroid viability
Test: Anticancer human tumor 855422-203-R-J1-PDC patient-derived bladder carcinoma cell line growth inhibition [POLQ]
Conditions: for IC50: curve of first compound; for viability, T/C: stronger effect = lower value
Method: Multicellular complex tumor spheroid response to Polymerase (POL) inhibitors (novobiocin, ART-558, RP6685) in combination with a variety of drugs and investigational agents in selected tumor cell lines
The POL inhibitors (novobiocin, ART-558, and RP6685) were evaluated both individually and in combination with standard of care and investigational anticancer small molecules within a complex spheroid model of solid tumors. . Complex spheroids include a stromal component modeled by human endothelial cells (HUVEC) and fibroblasts modeled by human mesenchymal stem cells (MSCs). The concentration ranges selected for each drug and investigational agent were based upon clinically achievable concentrations if the clinical Cmax of the agent was known.
Compounds. The drugs and investigational agents: novobiocin (NSC847541), ART-558 (NSC835418), RP-6685 (NSC848927), peposertib (NSC802822), ceralasertib (NSC780249), elimusertib (NSC800525), camonsertib (NSC841442), AZD-1390 (NSC803789), olaparib (NSC753686), talazoparib (NSC767125), rucaparib (NSC756644), sotorasib (NSC818433), MRTX-1133 (NSC836407), SN-38 (NSC673596), topotecan (NSC609699), epotoside (NSC141540), doxorubicin (NSC123127), gemcitabine (NSC613327), 5-fluorouracil (NSC19893), paclitaxel (NSC125973), vemurafenib (NSC761431), MSA-2 (NSC828583), SN-011 (NSC837082), adavosertib (NSC754352), prexasertib (NSC758257), carboplatin (NSC241240) and oxaliplatin (NSC266046), were obtained from the National Cancer Institute (NCI) Developmental Therapeutics Program Chemical Repository (21). The FDA-approved anticancer drug set is available from the Developmental Therapeutics Program at https://dtp.cancer.gov/organization/dscb/obtaining/. […] The stock solutions were prepared in dimethyl sulfoxide (DMSO, Sigma-Aldrich, St. Louis, MO, cat. D2650), except for the platinum compounds which were prepared in saline (Quality Biological, Gaithersburg, MD, cat. 114-055-101), at 800-fold the tested concentration and stored at -70 degrees C prior to their use. All drugs and investigational agents were tested over a range starting from a high concentration at or near the clinical Cmax and decreasing in half-log increments. If the clinical Cmax for an agent had not been determined, the highest concentration tested was 10 microM, except for SN-38, which was tested at a high concentration of 1 microM.
Cell Culture. All cells were maintained in an incubator at 37 degrees C and 5% CO2 with 95% humidity. The PDC lines were cultured according to standard operating procedures established by the NCI PDMR (https://pdmr.cancer.gov). Table 3 of the manuscript, lists the cell lines along with the number of the three cell types plated to form the mct-spheroids and media for tumor cell growth. After thawing, all PDC lines, except 997537-175-T-J1-PDC and 415267-285-R-J2-PDC, were cultured in Matrigel-coated flasks prepared with a working solution of 1X Ham's F-12 nutrient mix, without supplementation (Thermo Fisher Scientific, cat. 11765054), 100 U/mL penicillin-streptomycin (Thermo Fisher Scientific, cat. 15140122), and 2.5% Matrigel (Corning Inc., Corning, NY, cat. 354248) for the first three passages. The two PDC lines 997537-175-T-J1-PDC and 415267-285-R-J2-PDC were cultured on uncoated flasks. The 857933-349-R-J2-PDC line was cultured in 6C/Colon 1B media containing advanced DMEM/F-12 (Thermo Fisher Scientific, cat. 12634028), 10 mM HEPES (Thermo Fisher Scientific, cat. 15630080), 1X GlutaMAX supplement (Thermo Fisher Scientific, cat. 35050061), 0.1 mg/mL primocin (InvivoGen, San Diego, CA, cat. ant-pm-2), 10% defined fetal bovine serum, heat inactivated (HyClone Laboratories Inc., Logan, UT, cat. SH30070.03HI), 50% L-WRN conditioned media (ATCC, cat. CRL-3276), 1.25 mM N-Acetyl-L-cysteine (Sigma-Aldrich, cat. A9165), 10 mM nicotinamide (Sigma-Aldrich, cat. N0636), 1X B-27 supplement (Thermo Fisher Scientific, cat. 17504044), 1X N-2 supplement (Thermo Fisher Scientific, cat. […]

[1] = second compound 0.0316 µM, first compound 0.0316 µM
[2] = second compound 0.0316 µM, first compound 0.1 µM
[3] = second compound 0.0316 µM, first compound 0.316 µM
[4] = second compound 0.0316 µM, first compound 1 µM
[5] = second compound 0.1 µM, first compound 0.0316 µM
[6] = second compound 0.1 µM, first compound 0.1 µM
[7] = second compound 0.1 µM, first compound 0.316 µM
[8] = second compound 0.1 µM, first compound 1 µM
[9] = second compound 0.316 µM, first compound 0.0316 µM
[10] = second compound 0.316 µM, first compound 0.1 µM
[11] = second compound 0.316 µM, first compound 0.316 µM
[12] = second compound 0.316 µM, first compound 1 µM
[13] = second compound 1 µM, first compound 0.0316 µM
[14] = second compound 1 µM, first compound 0.1 µM
[15] = second compound 1 µM, first compound 0.316 µM
[16] = second compound 1 µM, first compound 1 µM
[17] = second compound 3.16 µM, first compound 0.0316 µM
[18] = second compound 3.16 µM, first compound 0.1 µM
[19] = second compound 3.16 µM, first compound 0.316 µM
[20] = second compound 3.16 µM, first compound 1 µM
[21] = second compound 10 µM, first compound 0.0316 µM
[22] = second compound 10 µM, first compound 0.1 µM
[23] = second compound 10 µM, first compound 0.316 µM
[24] = second compound 10 µM, first compound 1 µM
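Note: spheroids exposed to compounds for seven days before readout.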

Question: For C#Cc1c(F)ccc2cc(O)cc(-c3ncc4c(N5CC6CCC(C5)N6)nc(OCC56CCCN5CC(F)C6)nc4c3F)c12 (centres undefined) + COC1C(OC(N)=O)C(O)C(Oc2ccc3c(O)c(NC(=O)c4ccc(O)c(CC=C(C)C)c4)c(=O)oc3c2C)OC1(C)C, which IC50 (second compound 0.0316 µM) is on record?
Answer: > 10000 nM

Question: And the IC50 (second compound 0.1 µM)?
Answer: > 10000 nM

Question: What about the IC50 (second compound 0.316 µM) of the same compound?
Answer: > 10000 nM

Question: And the IC50 (second compound 1 µM)?
Answer: > 10000 nM

Question: What about the IC50 (second compound 3.16 µM) of the same compound?
Answer: > 10000 nM

Question: What about the IC50 (second compound 10 µM) of the same compound?
Answer: > 10000 nM

Question: And the viability, T/C [1]?
Answer: 102%

Question: And the viability, T/C [2]?
Answer: 105%

Question: What about the viability, T/C [3] of the same compound?
Answer: 96.1%

Question: And the viability, T/C [4]?
Answer: 109%

Question: And the viability, T/C (second compound 0.0316 µM, first compound 3.16 µM)?
Answer: 123%

Question: And the viability, T/C (second compound 0.0316 µM, first compound 10 µM)?
Answer: 120%

Question: And the viability, T/C [5]?
Answer: 103%

Question: And the viability, T/C [6]?
Answer: 114%

Question: And the viability, T/C [7]?
Answer: 98.4%

Question: What about the viability, T/C [8] of the same compound?
Answer: 108%

Question: And the viability, T/C (second compound 0.1 µM, first compound 3.16 µM)?
Answer: 102%

Question: And the viability, T/C (second compound 0.1 µM, first compound 10 µM)?
Answer: 108%

Question: And the viability, T/C [9]?
Answer: 108%

Question: And the viability, T/C [10]?
Answer: 103%

Question: What about the viability, T/C [11] of the same compound?
Answer: 122%

Question: What about the viability, T/C [12] of the same compound?
Answer: 115%

Question: And the viability, T/C (second compound 0.316 µM, first compound 3.16 µM)?
Answer: 114%

Question: What about the viability, T/C (second compound 0.316 µM, first compound 10 µM) of the same compound?
Answer: 117%

Question: And the viability, T/C [13]?
Answer: 103%

Question: What about the viability, T/C [14] of the same compound?
Answer: 97.3%

Question: What about the viability, T/C [15] of the same compound?
Answer: 117%

Question: And the viability, T/C [16]?
Answer: 115%

Question: And the viability, T/C (second compound 1 µM, first compound 3.16 µM)?
Answer: 120%

Question: And the viability, T/C (second compound 1 µM, first compound 10 µM)?
Answer: 111%

Question: And the viability, T/C [17]?
Answer: 107%

Question: And the viability, T/C [18]?
Answer: 109%

Question: What about the viability, T/C [19] of the same compound?
Answer: 123%

Question: And the viability, T/C [20]?
Answer: 111%

Question: What about the viability, T/C (second compound 3.16 µM, first compound 3.16 µM) of the same compound?
Answer: 96.5%

Question: And the viability, T/C (second compound 3.16 µM, first compound 10 µM)?
Answer: 99.2%

Question: What about the viability, T/C [21] of the same compound?
Answer: 102%

Question: And the viability, T/C [22]?
Answer: 104%

Question: And the viability, T/C [23]?
Answer: 108%

Question: What about the viability, T/C [24] of the same compound?
Answer: 117%

Question: What about the viability, T/C (second compound 10 µM, first compound 3.16 µM) of the same compound?
Answer: 112%

Question: What about the viability, T/C (second compound 10 µM, first compound 10 µM) of the same compound?
Answer: 115%

Question: What does the source list for CCc1c2c(nc3ccc(O)cc13)-c1cc3c(c(=O)n1C2)COC(=O)[C@]3(O)CC + Cc1cccc(N(C)C(=O)C2C(O)CCN2c2nc(C)cc(C(F)(F)F)c2C#N)c1?
Answer: IC50 (second compound 0.0316 µM): 3.34 nM; IC50 (second compound 0.1 µM): 3.49 nM; IC50 (second compound 0.316 µM): < 3.16 nM; IC50 (second compound 1 µM): < 3.16 nM; IC50 (second compound 3.16 µM): < 3.16 nM; IC50 (second compound 10 µM): < 3.16 nM; viability, T/C (second compound 0.0316 µM, first compound 0.00316 µM): 52.3%; viability, T/C (second compound 0.0316 µM, first compound 0.01 µM): 9.87%; viability, T/C [1]: 7.42%; viability, T/C [2]: 5.03%; viability, T/C [3]: 3.07%; viability, T/C [4]: 1.53%; viability, T/C (second compound 0.1 µM, first compound 0.00316 µM): 53.6%; viability, T/C (second compound 0.1 µM, first compound 0.01 µM): 14.6%; viability, T/C [5]: 7.37%; viability, T/C [6]: 4.23%; viability, T/C [7]: 3.04%; viability, T/C [8]: 1.53%; viability, T/C (second compound 0.316 µM, first compound 0.00316 µM): 46.3%; viability, T/C (second compound 0.316 µM, first compound 0.01 µM): 13.7%; viability, T/C [9]: 6.83%; viability, T/C [10]: 5.76%; viability, T/C [11]: 2.86%; viability, T/C [12]: 1.53%; viability, T/C (second compound 1 µM, first compound 0.00316 µM): 44.8%; viability, T/C (second compound 1 µM, first compound 0.01 µM): 15.2%; viability, T/C [13]: 8.04%; viability, T/C [14]: 5.03%; viability, T/C [15]: 2.97%; viability, T/C [16]: 1.31%; viability, T/C (second compound 3.16 µM, first compound 0.00316 µM): 40%; viability, T/C (second compound 3.16 µM, first compound 0.01 µM): 12.1%; viability, T/C [17]: 6.92%; viability, T/C [18]: 5.22%; viability, T/C [19]: 2.69%; viability, T/C [20]: 1.55%; viability, T/C (second compound 10 µM, first compound 0.00316 µM): 28.5%; viability, T/C (second compound 10 µM, first compound 0.01 µM): 11.5%; viability, T/C [21]: 7.06%; viability, T/C [22]: 3.56%; viability, T/C [23]: 2.83%; viability, T/C [24]: 2.09%
